One data set deals with phospho-ERK. In words: phospho-ERK assay (AlphaLisa) in H358 cells. The settings on record: Homo sapiens, NCI-H358, 1.5 hours incubation, read-out: pERK assay (IC50). The data set is classed as cell-based. On the procedure: H358 [20,000 cell/well] was contained in 40 µL of the cell culture solution (RPMI, 10% FBS, penicillin, streptomycin) and placed on a 384-well plate. After 24 hours, the serially diluted compound according to the Examples (concentration of minimum 0.13 nM, maximum 10 µM) was contained in 10 µL of the cell culture solution, put into wells containing cells, and incubated in a cell incubator for 1.5 hours. As a positive control group, the selective SHP2 inhibitor, TNO155 (Chemietek, US; concentration ranging from 0.13 nM to 10 µM) was used.
Thereafter, phospho-ERK was labeled using an AlphaLisa system from PerkinElmer according to the manufacturer's instructions, and then fluorescence (680 nm excitation wavelength, 615 nm emission wavelength) values were measured using a Varioskan equipment from Thermo. IC50 values were obtained using Graphad's Prism from the measured values depending on the concentration.
Intracellular SHP2 activity can be confirmed by measuring the degree of phosphorylation of ERK (extracellular signal regulated kinase), which represents Ras/Raf/ERK, a downstream signal pathway of SHP2. Inhibition of ERK phosphorylation by SHP2 inhibitors was confirmed through phospho-ERK analysis, which confirmed that the SHP2 inhibitors of the present disclosure have excellent activity in inhibiting ERK phosphorylation mediated by SHP2.

The next data set concerns H358 cells. In words: Cell viability (3D spheroid, 3D CellTiter-Glo). The data set is classed as cell-based. As to conditions: Homo sapiens, NCI-H358, 120 h; H358 spheroids, 5 days treatment. On the procedure:
Human non-small cell lung cancer cell line H358 cells were purchased from the Korean Cell Line Bank. Cancer cell lines were cultured in the recommended RPMI-1640 medium supplemented with 10% fetal bovine serum (FBS) and 1% penicillin/streptomycin. Monolayer-cultured cancer cell lines were detached by treatment with Trypsin/EDTA, and 100 µL of cell suspension containing 4 x 10^3 cells was each dispensed into SPL3D™ Cell Floater, 96-well round plate, through cell line counting. After culturing for 72 hours to form spheroid, the cells were individually treated with the compounds according to the Examples, which had been serially diluted (minimum 1.5 nM, maximum 10 µM in concentration), and then cultured in a cell incubator for 5 days. To analyze cell viability, the cells were treated with 50 uL of 3D CellTiter-Glo, stirred for 5 minutes at 500 rpm in a plate shaker from Thermo Fisher Scientific, and incubated for 25 minutes at room temperature. Then, the luminescent values were measured using a Varioskan equipment from Thermo Fisher Scientific. IC50 values were obtained using GraphPad's Prism from the measured values depending on the concentration.
In the cell viability assay, when an IC50 value was 50 nM or more, + was indicated, when an IC50 value was 10 nM or more and less than 50 nM, ++ was indicated, and when an IC50 value was less than 10 nM, +++ was indicated.
For orientation: In ATP-based viability assays light output follows the ATP content of the culture.

A short description of data set [1]: Brain-plasma Pharmacokinetics. As to conditions: male, CD-1 (ICR), mouse, brain/plasma, 20 mg/kg.
Method: Nine male CD-1 mice (ICR mouse) aged 6 to 9 weeks were treated with the compounds according to the Examples at a concentration of 20 mg/kg. 0.025 mL of blood and brain tissue were collected at 1 hour, 8 hours, and 24 hours post-treatment, respectively. The collected blood was placed in an EDTA-K2 tube, centrifuged at 4°C at 3,200 x g for 10 minutes, and the supernatant plasma was collected. The brain tissue samples were collected immediately after euthanizing the CD-1 mice after blood collection and performing cardiac perfusion with cold saline. After collection, the brain tissues were washed with cold saline, wiped and dried, weighed, and homogenized using a homogenization buffer (15 mM PBS (pH 7.4): MeOH = 2:1) at a ratio of 1:3 (1 g of tissue to 3 mL of buffer, dilution ratio 4). Plasma and homogenized brain tissue samples were each transferred to a polypropylene microcentrifuge tube and stored at -60°C or lower. The concentration of compounds distributed in plasma and brain tissue was analyzed using LC-MS/MS, and the distribution in brain tissue compared to plasma was calculated as follows. Brain-to-plasma ratio = AUC(0-t) brain tissue /AUC(0-t) plasma [formula]
In the Brain-plasma Pharmacokinetics assay, when a brain-to-plasma ratio value was 0.05 or more and less than 0.1, + was indicated, when a brain-to-plasma ratio value was 0.1 or more and less than 0.25, ++ was indicated, and when a brain-to-plasma ratio value was more than 0.25, +++ was indicated.
The target in a further data set is T1, SHP2 (Homo sapiens, UniProt Q06124).
T1 construct: SHP2 (full length, diluted to 100 pM final concentration in reaction buffer, BPS bioscience, US); purchased BPS bioscience, US
T1 sequence (Q06124 1-593): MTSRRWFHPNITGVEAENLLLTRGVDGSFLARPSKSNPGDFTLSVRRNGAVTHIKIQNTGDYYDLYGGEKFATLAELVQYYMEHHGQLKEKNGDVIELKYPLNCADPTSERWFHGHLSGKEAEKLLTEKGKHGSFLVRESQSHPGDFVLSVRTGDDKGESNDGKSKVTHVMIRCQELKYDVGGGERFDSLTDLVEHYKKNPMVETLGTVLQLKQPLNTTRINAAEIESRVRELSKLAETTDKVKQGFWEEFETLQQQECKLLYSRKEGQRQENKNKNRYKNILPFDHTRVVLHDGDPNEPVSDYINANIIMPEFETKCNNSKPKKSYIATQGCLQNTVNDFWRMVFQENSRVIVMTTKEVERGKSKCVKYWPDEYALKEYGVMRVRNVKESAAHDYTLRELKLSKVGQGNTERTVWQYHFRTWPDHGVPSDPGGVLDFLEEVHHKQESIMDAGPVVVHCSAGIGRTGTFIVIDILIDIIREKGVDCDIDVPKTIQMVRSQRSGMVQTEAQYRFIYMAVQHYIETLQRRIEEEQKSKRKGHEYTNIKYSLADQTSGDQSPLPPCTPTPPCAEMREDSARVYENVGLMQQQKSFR
In words: Phosphatase assay (PTPase assay, DiFMUP substrate). The data set is classed as biochemical. The settings on record: full length SHP2 100 pM activated with SHP2 activating peptide, DiFMUP 80 µM, 2 hours; read-out: PTPase assay (IC50). On the procedure: IC50 values were measured using 6,8-difluoro-4-methylumbelliferyl phosphate (DiFMUP) as a substrate. The reaction was performed in a 384-well plate, and fluorescence measurement values were obtained using an EnVision plate reader from PerkinElmer.
SHP2 (full length, diluted to 100 pM final concentration in reaction buffer, BPS bioscience, US) was incubated with the SHP2 activating peptide in reaction buffer (60 mM HEPES (pH 7.2), 75 mM NaCl, 75 mM KCl, 1 mM EDTA, 5 mM DTT, 0.05% P-20) for 30 minutes to activate SHP2. After activation, DMSO [1% (V/V) or the compound according to the Examples (concentration ranging from 0.6 nM to 10 µM)] was added. As a positive control group, the selective SHP2 inhibitors SHP099 (6-(4-amino-4-methylpiperidin-1-yl)-3-(2,3-dichlorophenyl)pyrazin-2-amine, FOCUS bioscience, Austrailia; concentration ranging from 0.6 nM to 10 µM) and TNO155 ((3S,4S)-8-(6-amino-5-((2-amino-3-chloropyridin-4-yl)thio)pyrazin-2-yl)-3-methyl-2-oxa-8-azaspiro[4.5]decan-4-amine, Chemietek, US; concentration ranging from 0.6 nM to 10 µM) were used. [drawing 184]
DiFMUP (80 µM) was added to the reaction and incubated for a total of 2 hours to allow for the reaction to proceed. Thereafter, fluorescence (340 nm excitation, 450 nm emission) values were measured. IC50 values were obtained using Graphad's Prism from the measured values depending on the concentration.
In the phosphatase assay (PTPase assay), when an IC50 value was 100 nM or more, + was indicated, when an IC50 value was 3 nM or more and less than 100 nM, ++ was indicated, and when an IC50 value was less than 3 nM, +++ was indicated.

Structures are written as SMILES.

One may read the IC50 as the concentration needed to halve the response being measured. One may read the Kp as tissue or fluid exposure divided by exposure in the circulation.

Take `COC(C)(C)Cn1cnc2ccc(Sc3cnc(N4CCC5(CC4)Cc4ncsc4[C@H]5N)cn3)c(Cl)c2c1=O` [Example 32, (S)-6-((5-(6-amino-4,6-dihydrospiro[cyclopenta[d]thiazole-5,4'-piperidin]-1'-yl)pyrazin-2-yl)thio)-5-chloro-3-(2-methoxy-2-methylpropyl)quinazolin-4(3H)-one]: the figures for the IC50 in the data set with phospho-ERK and in the data set on H358 cells were below 45 nM and below 10 nM, respectively. For the same compound, the partition ratio (Kp) at 24 h in data set [1] is 0.1 to 0.25.
For `COC(C)(C)Cn1cnc2ccc(Sc3ncc(N4CCC5(CC4)Cc4ccccc4[C@H]5N)nc3N)c(Cl)c2c1=O` [Example 36, (S)-6-((3-amino-5-(1-amino-1,3-dihydrospiro[indene-2,4'-piperidin]-1'-yl)pyrazin-2-yl)thio)-5-chloro-3-(2-methoxy-2-methylpropyl)quinazolin-4(3H)-one], the figures for the half-inhibitory concentration (IC50) on SHP2, in the data set with phospho-ERK and with H358 cells were below 3 nM, below 45 nM and below 10 nM, respectively. Also, the partition ratio (Kp) at 24 h in data set [1] was 0.05 to 0.1.
Take `COC(C)(C)Cn1cnc2ccc(Sc3ncc(N4CCC5(CC4)CO[C@@H](C)[C@H]5N)nc3N)c(Cl)c2c1=O` [Example 37, 6-((3-amino-5-((3S,4S)-4-amino-3-methyl-2-oxa-8-azaspiro[4.5]decan-8-yl)pyrazin-2-yl)thio)-5-chloro-3-(2-methoxy-2-methylpropyl)quinazolin-4(3H)-one]: the figures for the half-maximal inhibitory concentration (IC50) on SHP2, in the data set with phospho-ERK and with H358 cells were 3 to 100 nM, 45 to 1500 nM and 10 to 50 nM, respectively. Also, in data set [1], the Kp at 24 h was in the range of 0.05 to 0.1.
Consider `N[C@@H]1c2ccccc2CC12CCN(c1cnc(Sc3ccc4ncn(-c5cccnc5)c(=O)c4c3Cl)cn1)CC2` [Example 31, (S)-6-((5-(1-amino-1,3-dihydrospiro[indene-2,4'-piperidin]-1'-yl)pyrazin-2-yl)thio)-5-chloro-3-(pyridin-3-yl)quinazolin-4(3H)-one], for which the results for the IC50 with phospho-ERK and in the data set with H358 cells were 45 to 1500 nM and below 10 nM, respectively. Further, the Kp at 24 h in data set [1] was 0.1 to 0.25.
With `COC(C)(C)Cn1ccc2ccc(Sc3cnc(N4CCC5(CC4)Cc4ccccc4[C@H]5N)cn3)c(Cl)c2c1=O` [Example 43, (S)-7-((5-(1-amino-1,3-dihydrospiro[indene-2,4'-piperidin]-1'-yl)pyrazin-2-yl)thio)-8-chloro-2-(2-methoxy-2-methylpropyl)isoquinolin-1(2H)-one], the IC50 was below 3 nM at SHP2, 45 to 1500 nM with phospho-ERK and below 10 nM with H358 cells. Also, the Kp at 24 h in data set [1] was above 0.25.
The like results for `COC(C)(C)Cn1cnc2ccc(Sc3cnc(N4CCC5(CC4)Cc4ccccc4[C@H]5N)cn3)cc2c1=O` [Example 29, (S)-6-((5-(1-amino-1,3-dihydrospiro[indene-2,4'-piperidin]-1'-yl)pyrazin-2-yl)thio)-3-(2-methoxy-2-methylpropyl)quinazolin-4(3H)-one] were, in that order, 3 to 100 nM, 45 to 1500 nM, below 10 nM and above 0.25.
The like results for `COC(C)(C)Cn1cnc2ccc(Sc3nc(CO)c(N4CCC5(CC4)Cc4ccccc4[C@H]5N)nc3C)c(Cl)c2c1=O` [Example 35, (S)-6-((5-(1-amino-1,3-dihydrospiro[indene-2,4'-piperidin]-1'-yl)-6-(hydroxymethyl)-3-methylpyrazin-2-yl)thio)-5-chloro-3-(2-methoxy-2-methylpropyl)quinazolin-4(3H)-one] were, in that order, below 3 nM, 45 to 1500 nM, below 10 nM and 0.1 to 0.25.
The like results for `COC(C)(C)Cn1ccc2ccc(Sc3cnc(N4CCC5(CC4)Cc4ccccc4[C@H]5N)cn3)cc2c1=O` [Example 44, (S)-7-((5-(1-amino-1,3-dihydrospiro[indene-2,4'-piperidin]-1'-yl)pyrazin-2-yl)thio)-2-(2-methoxy-2-methylpropyl)isoquinolin-1(2H)-one] were, in that order, 3 to 100 nM, 45 to 1500 nM, below 10 nM and above 0.25.
For the compound `COC(C)(C)Cn1cnc2ccc(Sc3cnc(N4CCC5(CC4)Cc4ccccc4[C@H]5N)cn3)c(Cl)c2c1=O` [Example 27, (S)-6-((5-(1-amino-1,3-dihydrospiro[indene-2,4'-piperidin]-1'-yl)pyrazin-2-yl)thio)-5-chloro-3-(2-methoxy-2-methylpropyl)quinazolin-4(3H)-one], the IC50 was below 3 nM at SHP2, below 45 nM in the data set on phospho-ERK and below 10 nM in the data set on H358 cells. Besides, in data set [1], the Kp at 24 h is above 0.25.
`COC(C)(C)Cn1cnc2ccc(Sc3cnc(N4CCC5(CC4)CO[C@@H](C)[C@H]5N)cn3)c(Cl)c2c1=O` [Example 18, 6-((5-((3S,4S)-4-amino-3-methyl-2-oxa-8-azaspiro[4.5]decan-8-yl)pyrazin-2-yl)thio)-5-chloro-3-(2-methoxy-2-methylpropyl)quinazolin-4(3H)-one]: the IC50 is below 3 nM at SHP2, below 45 nM in the data set on phospho-ERK and below 10 nM with H358 cells. The same compound gave a Kp at 24 h in data set [1] above 0.25.
For `COC(C)(C)Cn1cnc2ccc(Sc3cnc(N4CCC5(CC4)Cc4ccccc4[C@H]5N)nn3)c(Cl)c2c1=O` [Example 34, (S)-6-((3-(1-amino-1,3-dihydrospiro[indene-2,4'-piperidin]-1'-yl)-1,2,4-triazin-6-yl)thio)-5-chloro-3-(2-methoxy-2-methylpropyl)quinazolin-4(3H)-one], the IC50 at SHP2 was below 3 nM; with H358 cells it was below 10 nM. Further, in data set [1], the Kp at 24 h lay within 0.1 to 0.25.
The like results for `C[C@@H]1OCC2(CCN(c3cnc(Sc4ccc5ccn(C)c(=O)c5c4Cl)cn3)CC2)[C@@H]1N` [Example 15, 7-((5-((3S,4S)-4-amino-3-methyl-2-oxa-8-azaspiro[4.5]decan-8-yl)pyrazin-2-yl)thio)-8-chloro-2-methylisoquinolin-1(2H)-one] were, in that order, below 3 nM, 10 to 50 nM and 0.05 to 0.1.

These data come from patent EP4647433A1, “SHP2 INHIBITOR AND USES THEREOF” (Kanaph Therapeutics Inc., priority 2023, dated 2024).
